From PubChem BioAssay AID1259411 (Chemical Carcinogenesis Research Information System (CCRIS), 2018)
Active and inactive are the calls of the source. No rule for the calls is given here.

Test system: rodent carcinogenicity bioassays, tumor incidence
Assay: CCRIS carcinogenicity studies
Conditions: Species: RAT
Procedure, shortened: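 NCI-built, expert-reviewed records of carcinogenicity and related test outcomes (mutagenicity, tumor promotion/inhibition) compiled from published and report sources, historical span 1985-2011, not updated.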

Measured: carcinogen call

CC(=O)Nc1ccc2c(c1)Cc1ccccc1-2
active: Strain/Sex: ALBINO/MALE, Route: ORAL, Dose: 0.018, 0.036% IN DIET FOR 90 DAYS, Tumor Site: Type of Lesion: LIVER: HEPATOMA, EAR (DUCT), INTESTINES (SMALL), Tumor Site: Type of Lesion: LIVER: HEPATOMA, EAR (DUCT), INTESTINES (SMALL) active; positive | Strain/Sex: BUFFALO/ MALE, FEMALE, Route: ORAL, Dose: 0.05% IN DIET FOR 23 WK (580 MG/RAT), Tumor Site: Type of Lesion: LIVER: HEPATOMA, EAR (DUCT): CARCINOMA active; positive | Strain/Sex: F344/MALE, Route: ORAL, Dose: 0.06% IN DIET FOR 3 WK, THEN CONTROL DIET FOR 1 WK, REPEATED 3X, Tumor Site: Type of Lesion: TESTES: MESOTHELIOMA, LIVER: HEPATOCELLULAR CARCINOMA, CHOLANGIOCARCINOMA active; positive | Strain/Sex: FEMALE, Route: ORAL, Dose: 0.03% IN DIET, Tumor Site: Type of Lesion: EYE active; positive | Strain/Sex: FEMALE, Route: ORAL, Dose: 1.62 MMOL/KG DIET FOR 8 MO, Tumor Site: Type of Lesion: MAMMARY GLAND, EAR (DUCT), INTESTINES (SMALL), Tumor Site: Type of Lesion: MAMMARY GLAND, EAR (DUCT), INTESTINES (SMALL) active; positive | Strain/Sex: HOLTZMAN/FEMALE, Route: ORAL, Dose: 1.62 MMOL/KG IN DIET, Tumor Site: Type of Lesion: MAMMARY GLAND, EAR (DUCT), INTESTINES (SMALL), Tumor Site: Type of Lesion: MAMMARY GLAND, EAR (DUCT), INTESTINES (SMALL) active; positive | Strain/Sex: HOLTZMAN/MALE, Route: ORAL, Dose: 1.62 MMOL/KG IN DIET, Tumor Site: Type of Lesion: LIVER, EAR (DUCT), INTESTINES (SMALL), Tumor Site: Type of Lesion: LIVER, EAR (DUCT), INTESTINES (SMALL) active; positive | Strain/Sex: LONG-EVANS/ MALE, FEMALE, Route: ORAL, Dose: IN DIET, Tumor Site: Type of Lesion: EAR (AUDITORY CANAL): SQUAMOUS CELL CARCINOMA active; positive | Strain/Sex: MALE, Route: ORAL, Dose: 1.62 MMOL/KG IN DIET FOR 8 MO, Tumor Site: Type of Lesion: LIVER: HEPATOMA, INTESTINES (SMALL), EAR (DUCT), Tumor Site: Type of Lesion: LIVER: HEPATOMA, INTESTINES (SMALL), EAR (DUCT) active; positive | Strain/Sex: PIEBALD/ MALE, FEMALE, Route: ORAL, Dose: 4 MG DAILY IN DIET FOR 25 WK, Tumor Site: Type of Lesion: LIVER: HEPATOMA, EAR (DUCT): CARCINOMA, INTESTINES: CARCINOMA, Tumor Site: Type of Lesion: LIVER: HEPATOMA, EAR (DUCT): CARCINOMA, INTESTINES: CARCINOMA active; positive | Strain/Sex: PIEBALD/FEMALE, Route: ORAL, Dose: 0.03% IN DIET, Tumor Site: Type of Lesion: MAMMARY GLAND: CARCINOMA active; positive | Strain/Sex: PIEBALD/MALE, Route: DERMAL, Dose: IN ACETONE, Tumor Site: Type of Lesion: LIVER: HEPATOMA, INTESTINES: CARCINOMA active; positive | Strain/Sex: SHEFFIELD/ MALE, FEMALE, Route: ORAL, Dose: 4 MG DAILY IN DIET FOR 25 WK, Tumor Site: Type of Lesion: LIVER: HEPATOMA, EAR (DUCT): CARCINOMA, INTESTINES: CARCINOMA, Tumor Site: Type of Lesion: LIVER: HEPATOMA, EAR (DUCT): CARCINOMA, INTESTINES: CARCINOMA active; positive | Strain/Sex: SHERMAN/ MALE, FEMALE, Route: ORAL, Dose: 0.03% IN DIET FOR LIFE, Tumor Site: Type of Lesion: LIVER: CARCINOMA active; positive | Strain/Sex: SPRAGUE-DAWLEY/FEMALE, Route: INTRAPERITONEAL, Dose: 1 MG/0.1 ML 3/WK FOR 4 WK (TOTAL DOSE 0.17 MMOL/RAT), Tumor Site: Type of Lesion: MAMMARY GLAND: ADENOCARCINOMA active; positive | Strain/Sex: SPRAGUE-DAWLEY/FEMALE, Route: ORAL, Dose: 300 MG/KG IN SEMI-PURIFIED OR STOCK DIET, Tumor Site: Type of Lesion: EAR (DUCT): CARCINOMA active; positive | Strain/Sex: STRAIN-CD/FEMALE, Route: ORAL, Dose: 80, 250 PPM IN DIET FOR 78 WK (LOW DOSE) OR 50 WK (HIGH DOSE), Tumor Site: Type of Lesion: LIVER: NEOPLASTIC NODULE, HEPATOCELLULAR CARCINOMA, MAMMARY GLAND: ADENOCARCINOMA active; positive | Strain/Sex: STRAIN-CD/MALE, Route: ORAL, Dose: 80, 250 PPM IN DIET FOR 78 WK (LOW DOSE) OR 50 WK (HIGH DOSE), Tumor Site: Type of Lesion: LIVER: HEPATOCELLULAR CARCINOMA active; positive | Strain/Sex: WISTAR/ MALE, FEMALE, Route: ORAL, Dose: 0.03% IN DIET FOR LIFE, Tumor Site: Type of Lesion: LIVER: CARCINOMA active; positive | Strain/Sex: WISTAR/ MALE, FEMALE, Route: ORAL, Dose: 0.07% IN DIET, Tumor Site: Type of Lesion: LIVER: HEPATOMA active; positive | Strain/Sex: WISTAR/MALE, Route: DERMAL, Dose: IN ACETONE, Tumor Site: Type of Lesion: LIVER: HEPATOMA, INTESTINES: CARCINOMA active; positive
